From patent US10842806B2, “Methods for treating ocular inflammatory disorders” (Massachusetts Eye and Ear Infirmary, priority 2011, dated 2020)

System: AMPKα1 KO BMDCs
Assay: LPS-stimulated AMPKα1 KO BMDC maturation and cytokine production
Type: cell-based, mice
Conditions: after LPS stimulation with AICAR
Protocol: BMDCs were generated as previously described (Wang et al. (2005) IMMUNOL. LETT. 98:123-130). Briefly, bone marrow was flushed from the femurs and tibias of naive mice (6 to 8-week-old WT or AMPKα1 KO mice). The red blood cells were lysed using Red Blood Cell Lysing Buffer (Sigma). Approximately 2×10^6 cells were cultured in complete medium (RPMI 1640 medium containing 10% FBS, […], 10 mM HEPES [pH 7.4], 2 mM glutamine, 100 U/ml penicillin, and […]) including 10 ng/ml GM-CSF (Pepro Tech, London, England). Fresh media was added to the cells on day 4 of culture, and nonadherent cells and loosely adherent cells were collected as immature DCs on day 7. Immature DCs were stimulated with 100 ng/ml LPS (Salmonella typhimurium; Sigma) for 24 hours to obtain mature DCs. In some experiments, AICAR was added to the culture. […] After LPS stimulation for 24 hours, supernatant of the BMDC culture was collected and IL-6, TNF-α and IL12/23 p40 concentrations were measured (R&D system). […] In these experiments, AMPKα1 KO mice were provided as previously described (Jorgensen et al. (2004) J. BIOL. CHEM. 279:1070-1079). Since BMDCs expressed only AMPKα1, BMDCs were extracted from AMPK KO mouse and used to determine the role of AMPK in the anti-inflammatory effects of AICAR. As shown in FIGS. 14A and 14B, AICAR suppressed the maturation of AMPKα1 KO BMDCs.

NC(=O)c1ncn([C@@H]2O[C@H](CO)[C@@H](O)[C@H]2O)c1N [AICAR, 5-aminoimidazole-4-carboxamide-1-β-d-ribofuranoside]
CD40 expression in AMPKα1 KO BMDCs: significantly suppressed | CD80 expression in AMPKα1 KO BMDCs: significantly suppressed | CD86 expression in AMPKα1 KO BMDCs: significantly suppressed | I-A^b expression in AMPKα1 KO BMDCs: significantly suppressed | IL12/23 p40 production in AMPKα1 KO BMDCs: suppressed | IL-6 production in AMPKα1 KO BMDCs: suppressed | TNF-α production in AMPKα1 KO BMDCs: suppressed
